Source: patent US10899754B2, “Modulators of indoleamine 2,3-dioxygenase” (GLAXOSMITHKLINE INTELLECTUAL PROPERTY DEVELOPMENT LIMITED, priority 2016, dated 2021)

Experiments:
Format in all cases: cell-based
[1] = system: human epithelial HeLa cells; test: HeLa cytotoxicity assay (CellTiter-Glo); settings: pCC50
Method in brief: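 HeLa cells (5,000/well) stimulated with 10 nM IFN-γ, exposed to 11-point 3-fold compound dilutions for 2 days at 37 °C; viability by CellTiter-Glo ATP luminescence. Normalized to cell-free (100% cytotoxicity) and stimulated-cell DMSO (0%) controls; four-parameter fit gives pCC50.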

[2] = system: human peripheral blood mononuclear cells (PBMC); test: PBMC cytotoxicity assay (CellTiter-Glo); settings: 2 days, pCC50
Method in brief: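 Human PBMC (50,000 cells/well) stimulated with IFN-γ 100 ng/ml and LPS 50 ng/ml were exposed to 11-point 3-fold compound dilutions for 2 days at 37 °C, 5% CO2. Viability read by CellTiter-Glo ATP luminescence and normalized to no-cell and stimulated-DMSO controls. XC50 derived by four-parameter fit.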

[3] = target: T1, indoleamine 2, 3-dioxygenase (IDO1) (Homo sapiens, UniProt P14902); test: IDO1 HeLa RapidFire MS assay (kynurenine detection by mass spectrometry); set-up: to induce the expression of indoleamine 2, 3-dioxygenase (IDO1); settings: HeLa cells, pIC50, read-out: IDO1_HELA_PXC50 (converted)
T1 sequence (P14902 whole entry): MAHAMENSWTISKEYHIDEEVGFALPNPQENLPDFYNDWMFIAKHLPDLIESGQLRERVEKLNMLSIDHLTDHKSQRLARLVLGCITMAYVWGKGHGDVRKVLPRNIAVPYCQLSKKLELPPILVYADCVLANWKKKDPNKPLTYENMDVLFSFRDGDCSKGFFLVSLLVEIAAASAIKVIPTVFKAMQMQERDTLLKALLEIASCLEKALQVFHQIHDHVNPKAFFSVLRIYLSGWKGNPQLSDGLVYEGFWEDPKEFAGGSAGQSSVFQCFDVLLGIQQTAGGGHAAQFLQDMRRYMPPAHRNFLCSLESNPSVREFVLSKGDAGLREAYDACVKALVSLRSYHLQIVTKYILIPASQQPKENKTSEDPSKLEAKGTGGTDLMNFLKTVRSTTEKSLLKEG
Method in brief: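 Compound potency reported as pIC50 from kynurenine/internal-standard ratio (RapidFire MS) in supernatant of IFN-γ-induced (10 nM) HeLa cells, 5,000 per well, after 2 days' treatment with 11-point dilutions. Cytotoxicity in the same format by luminescent ATP detection, reported as pCC50.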

[4] = target: T1, indoleamine 2, 3-dioxygenase (IDO1); test: IDO1 PBMC RapidFire MS assay (kynurenine detection by mass spectrometry); set-up: to induce the expression of indoleamine 2, 3-dioxygenase (IDO1); host or cells: human PBMC stimulated with IFN-gamma and LPS; settings: human PBMC stimulated with IFN-γ and LPS, 2 days, pIC50, read-out: PBMC PXC50 (converted)
Method in brief: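 PBMCs (50,000 cells/well) stimulated with IFN-γ 100 ng/ml plus LPS 50 ng/ml, treated with 11-point 3-fold compound series for 2 days at 37° C. Supernatant kynurenine measured by RapidFire MS, normalised to internal standard; parallel cytotoxicity by CellTiter-Glo luminescence; curves fitted for XC50.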

Compound | HELA_IDO1_TOX_PXC50 [1] | PBMC TOX PXC50 [2] | IC50 [3] [µM] | IC50 [4] [µM]
CC(C)CN(c1ccc(-c2ccccc2C(=O)O)cc1Nc1cccc(Cl)n1)C1CCCCC1 [example 266, 3′-[(6-chloropyridin-2-yl)amino]-4′-[cyclohexyl(2-methylpropyl)amino]-[1,1′-biphenyl]-2-carboxylic acid] | <5 | <5 | 0.2 | 0.0631
CC(C)CN(CC(C)C)c1ccc(C(C)CC(=O)O)cc1Nc1nc(N2CCOCC2)ns1.O=C(O)C(F)(F)F (stereo not drawn) [example 117, 3-{4-[bis(2-methylpropyl)amino]-3-{[3-(morpholin-4-yl)-1,2,4-thiadiazol-5-yl]amino}phenyl}butanoic acid] | <4.3 | <4.3 | 3.98 | –
CC(C)CN(c1ccc(C(C)(C)CC(=O)O)cc1Nc1nc(Cl)ns1)C1CCCCC1 [Example 2, 3-(3-((3-chloro-1,2,4-thiadiazol-5-yl)amino)-4-(cyclohexyl(isobutyl)amino)phenyl)-3-methylbutanoic Acid] | <5 | <5 | 0.00794 | 0.00158
CC[C@H](CC(=O)O)c1ccc(N(CC(C)C)CC(C)C)c(Nc2nc(C(F)(F)F)ns2)c1 [Example 39, (R)-3-(4-(diisobutylamino)-3-((3-(trifluoromethyl)-1,2,4-thiadiazol-yl)amino)phenyl)pentanoic Acid] | <5 | <5 | 0.00251 | 0.001
CC(C)CN(c1ccc([C@H](C)CC(=O)O)cc1NC1CCCC1)C1CCCCC1 [example 179, (3R)-3-{4-[cyclohexyl(2-methylpropyl)amino]-3-(cyclopentylamino)phenyl}butanoic acid] | <5 | – | 0.251 | 0.126
COCCN(c1ccc(-c2ccccc2C(=O)O)cc1Nc1nc2ccccc2o1)C1CCCCC1 [example 284, 3′-[(1,3-benzoxazol-2-yl)amino]-4′-[cyclohexyl(2-methoxyethyl)amino]-[1,1′-biphenyl]-2-carboxylic acid] | <5 | <5 | 0.398 | 0.2
CC(C)CN(c1ccc(C2CC2C(=O)O)cc1Nc1nc(C(F)(F)F)ns1)C1CCCCC1 (single isomer, unassigned) [Example 105, 2-(4-(cyclohexyl(isobutyl)amino)-3-((3-(trifluoromethyl)-1,2,4-thiadiazol-5-yl)amino)phenyl)cyclopropanecarboxylic Acid] | <5 | – | 0.00631 | 0.00316
CC(C)CN(CC(C)C)c1ccc(C(C)CC(=O)O)cc1Nc1nc2ccccc2n1C (stereo not drawn) [example 119, 3-{4-[bis(2-methylpropyl)amino]-3-[(1-methyl-1H-1,3-benzodiazol-2-yl)amino]phenyl}butanoic acid] | <4.3 | <4.3 | 1.26 | –
CC(C)CN(c1ccc(-c2ccccc2C(=O)O)cc1NCCC#N)C1CCCCC1 [example 277, 3′-[(2-cyanoethyl)amino]-4′-[cyclohexyl(2-methylpropyl)amino]-[1,1′-biphenyl]-2-carboxylic acid] | <5 | – | 0.316 | –
COCc1nnc(Nc2cc(C(C)CC(=O)O)ccc2N(CC(C)C)CC(C)C)s1 (stereo not drawn) [example 188, 3-{4-[bis(2-methylpropyl)amino]-3-{[5-(methoxymethyl)-1,3,4-thiadiazol-2-yl]amino}phenyl}butanoic acid] | <5 | – | 0.126 | –
CC(C)CN(CC(C)C)c1ccc(C(C)CC(=O)O)cc1NCc1noc(C2CC2)n1 (stereo not drawn) [example 147, 3-{4-[bis(2-methylpropyl)amino]-3-{[(5-cyclopropyl-1,2,4-oxadiazol-3-yl)methyl]amino}phenyl} butanoic acid] | <5 | – | > 10 | –
CC(C)CN(CC(C)C)c1ccc(C(C)CC(=O)O)cc1Nc1nc(-c2ccccc2)cs1 (stereo not drawn) [example 128, 3-{4-[bis(2-methylpropyl)amino]-3-[(4-phenyl-1,3-thiazol-2-yl)amino]phenyl}butanoic acid] | 4.4 | – | 2.51 | –
CC(=O)Nc1ccc(Nc2cc(C(C)CC(=O)O)ccc2N(CC(C)C)CC(C)C)nc1 (stereo not drawn) [example 199, 3-{4-[bis(2-methylpropyl)amino]-3-[(5-acetamidopyridin-2-yl)amino]phenyl}butanoic acid] | <5 | – | 6.31 | –
CC(C)CN(c1ccc(-c2cccnc2C(=O)O)cc1Nc1nc2ccccc2[nH]1)C1CCCCC1 [example 278, 3-{3-[(1H-1,3-benzodiazol-2-yl)amino]-4-[cyclohexyl(2-methylpropyl)amino]phenyl}pyridine-2-carboxylic acid] | <5 | – | 0.0501 | –
CC(C)CN(CC(C)C)c1ccc(C(C)CC(=O)O)cc1Nc1nnc(NS(C)(=O)=O)s1 (stereo not drawn) [example 192, 3-{4-[bis(2-methylpropyl)amino]-3-[(5-methanesulfonamido-1,3,4-thiadiazol-2-yl)amino]phenyl}butanoic acid] | <5 | – | 5.01 | –
CC(C)CN(c1ccc(-c2ccccc2C(=O)O)cc1Nc1nc(C(F)(F)F)ns1)C1CCNCC1 [example 272, 4′-[(2-methylpropyl)(piperidin-4-yl)amino]-3′-{[3-(trifluoromethyl)-1,2,4-thiadiazol-5-yl]amino}-[1,1′-biphenyl]-2-carboxylic acid] | <5 | – | 5.01 | –
CC(C)CN(c1ccc(-c2ccccc2C(=O)O)cc1Nc1nc(C(=O)O)ns1)C1CCCCC1 [example 275, 5-({2′-carboxy-4-[cyclohexyl(2-methylpropyl)amino]-[1,1′-biphenyl]-3-yl}amino)-1,2,4-thiadiazole-3-carboxylic acid] | <5 | – | 6.31 | –
CC(C)CN(c1ccc(-c2ccccc2C(=O)O)cc1Nc1nc(C(F)(F)F)ns1)C1CCN(CCO)CC1 [example 271, 4′-{[1-(2-hydroxyethyl)piperidin-4-yl](2-methylpropyl)amino}-3′-{[3-(trifluoromethyl)-1,2,4-thiadiazol-5-yl]amino}-[1,1′-biphenyl]-2-carboxylic acid] | <5 | – | 6.31 | –
Cc1nnc(Nc2cc(C(C)CC(=O)O)ccc2N(CC(C)C)CC(C)C)o1.O=C(O)C(F)(F)F (stereo not drawn) [example 125, 3-{4-[bis(2-methylpropyl)amino]-3-[(5-methyl-1,3,4-oxadiazol-2-yl)amino]phenyl}butanoic acid] | <4.3 | – | 1.26 | –
CC(C)CN(CC(C)C)c1ccc(C(C)CC(=O)O)cc1Nc1nc(N2CCN(C)CC2)ns1 (stereo not drawn) [example 116, 3-{4-[bis(2-methylpropyl)amino]-3-{[3-(4-methylpiperazin-1-yl)-1,2,4-thiadiazol-5-yl]amino}phenyl}butanoic acid] | <4.3 | <4.3 | 39.8 | –
COc1nsc(Nc2cc(C(C)CC(=O)O)ccc2N(CC(C)C)CC(C)C)n1 (stereo not drawn) [example 132, 3-{4-[bis(2-methylpropyl)amino]-3-[(3-methoxy-1,2,4-thiadiazol-5-yl)amino]phenyl}butanoic acid] | <4.3 | – | 15.8 | –
CC(=O)Nc1nnc(Nc2cc(C(C)CC(=O)O)ccc2N(CC(C)C)CC(C)C)s1 (stereo not drawn) [example 187, 3-{4-[bis(2-methylpropyl)amino]-3-[(5-acetamido-1,3,4-thiadiazol-2-yl)amino]phenyl}butanoic acid] | <5 | – | > 10 | –
CC(C)CN(CC(C)C)c1ccc(C(C)CC(=O)O)cc1Nc1nc(C(C)(C)C)cs1 (stereo not drawn) [example 133, 3-{4-[bis(2-methylpropyl)amino]-3-[(4-tert-butyl-1,3-thiazol-2-yl)amino]phenyl}butanoic acid] | 4.5 | – | 3.98 | –
CC(C)CN(c1ccc(C(C)CC(=O)O)cc1NC1CCNC1)C1CCCCC1 (stereo not drawn) [example 136, 3-{4-[cyclohexyl(2-methylpropyl)amino]-3-[(pyrrolidin-3-yl)amino]phenyl}butanoic acid] | 5.1 | – | 3.16 | –
CC(C)CN(CC(C)C)c1ccc(C(C)CC(=O)O)cc1Nc1nc(N2CCCC2)ns1.O=C(O)C(F)(F)F (stereo not drawn) [example 118, 3-{4-[bis(2-methylpropyl)amino]-3-{[3-(pyrrolidin-1-yl)-1,2,4-thiadiazol-5-yl]amino}phenyl}butanoic acid] | <4.3 | <4.3 | 5.01 | –
CC(C)CN(CC(C)C)c1ccc(C(C)CC(=O)O)cc1Nc1nnc(N)s1 (stereo not drawn) [example 208, 3-{3-[(5-amino-1,3,4-thiadiazol-2-yl)amino]-4-[bis(2-methylpropyl)amino]phenyl}butanoic acid] | <5 | – | 1.58 | –
